# Source: ChEMBL document CHEMBL6153138, “Discovery of Novel Aromatic Urea-Imidazole Salt Derivatives for Cancer Therapy via Targeting ERK1/2” (J Med Chem, 2025)
# Active and inactive are the calls of the source. The rule behind the calls is not given here.
# How the values were obtained:
# MCF7 [1] = assay: Antiproliferative activity against human MCF7 cells harbouring ERK1 knockout incubated for 48 hrs by CCK-8 method; assay type: functional, cell-based
# [2] = target: Vascular endothelial growth factor receptor 1 (Homo sapiens) (UniProt P17948); assay: Inhibition of human FLT1 at 10000 nM by DiscoverX KINOMEscan assay relative to control
# [3] = Toxicity in female BALB/c mouse assessed as effect on liver at 25 to 50 mg/kg, po qd measured after 18 days by H and E staining based analysis; assay type: organism-based; conditions: in vivo, 432 h, dose 25-50 mg/kg, time 18 day
# MCF7 [4] = assay: Induction of apoptosis in human MCF7 cells assessed as late apoptotic cells at 1 uM incubated for 48 hrs in presence of chloroquine by Annexin V/FITC and PI staining based flow cytometry analysis (reference value: 4.90%); assay type: functional
# [5] = target: Non-receptor tyrosine-protein kinase TYK2 (Homo sapiens) (UniProt P29597); assay: Inhibition of human TYK2 at 10000 nM by DiscoverX KINOMEscan assay relative to control
# MCF7 [6] = assay: Inhibition of colony formation in human MCF7 cells at 1 uM incubated for 6 hrs in presence of 3-methyladenine by crystal violet staining based analysis; assay type: functional, cell-based
# MCF7 [7] = assay: Upregulation of ERK1/2 phosphorylation expression in human MCF7 cells at 2 uM measured after 8 hrs by immunofluorescence analysis; assay type: functional, cell-based
# [8] = Half life in Sprague-Dawley rat at 10 mg/kg, po by LC-MS/MS analysis; assay type: ADME, organism-based; conditions: in vivo
# 4T1 [9] = assay: Antitumor activity against mouse 4T1 cells implanted in female BALB/c mouse model assessed as reduction in Ki67 expression at 50 mg/kg, po in presence of chloroquine by immunohistochemical analysis; assay type: functional, organism-based
# MCF7 [10] = assay: Induction of autophagic flux in human MCF7 cells assessed as decrease in p62 protein level at 0.5 to 2 uM incubated for 48 hrs by Western blotting analysis; assay type: functional, cell-based; conditions: dose 0.5-2 µM
# MCF7 [11] = assay: Induction of apoptosis in human MCF7 cells assessed as late apoptotic cells at 2 uM incubated for 48 hrs by Annexin V/FITC and PI staining based flow cytometry analysis (reference value: 2.5%); assay type: functional
# [12] = Toxicity in female BALB/c mouse assessed as effect on tumor at 50 mg/kg, po qd measured after 18 days in presence of chloroquine by H and E staining based analysis; assay type: organism-based; conditions: in vivo, 432 h, time 18 day
# MCF7 [13] = assay: Induction of autophagy in human MCF7 cells assessed as increase in LC3B expression at 0.5 to 2 uM by immunofluorescence analysis; assay type: functional, cell-based; conditions: dose 0.5-2 µM
# [14] = target: Mitogen-activated protein kinase 3 (Homo sapiens, UniProt P27361); assay: Induction of thermal stabilization of ERK1 (unknown origin) at 10 uM by differential scanning fluorimetry analysis
# [15] = AUC (0 to t) in Sprague-Dawley rat at 1 mg/kg, iv by LC-MS/MS analysis; assay type: ADME, organism-based; conditions: in vivo
# MCF7 [16] = assay: Induction of autophagy in human MCF7 cells assessed as increase in LC3B-II level at 1 uM by Western blot analysis; assay type: functional, cell-based
# Mitochondrial membrane = assay: Induction of mitochondrial membrane potential loss in human MCF7 cells assessed as reduction in JC-1 aggregates by measuring decrease in red fluorescence at 2 uM by flow cytometry analysis (reference value: 24.7%); assay type: cell membranes; set-up: scale not given: the % may be the effect or the level left
# [17] = target: Vascular endothelial growth factor receptor 3 (Homo sapiens) (UniProt P35916); assay: Inhibition of human FLT4 at 10000 nM by DiscoverX KINOMEscan assay relative to control
# MCF-10A = assay: Antiproliferative activity against human MCF-10A cells incubated for 48 hrs by CCK-8 method; assay type: functional, cell-based
# [18] = Toxicity in female BALB/c mouse assessed as effect CHO level in serum at 25 to 50 mg/kg, po qd measured after 18 days by biochemical analysis; assay type: organism-based; conditions: in vivo, 432 h, dose 25-50 mg/kg, time 18 day
# 4T1-Luc = assay: Anti-metastatic activity in mouse 4T1-Luc cells assessed as reduction in condensed nuclei at 25 to 50 mg/kg, po measured after 20 days by H and E staining based analysis; assay type: functional, organism-based; conditions: dose 25-50 mg/kg, time 20.0 day
# MCF7 [19] = assay: Upregulation of C-caspase3 protein expression in human MCF-7 cells at 1 uM incubated for 6 hrs in presence of 3-methyladenine by Western blot analysis; assay type: functional, cell-based
# 4T1 [20] = assay: Antitumor activity against mouse 4T1 cells implanted in female BALB/c mouse model assessed as reduction in number of Ki67-positive proliferative cells at 25 to 50 mg/kg, po qd by immunohistochemical analysis; assay type: functional, organism-based; conditions: dose 25-50 mg/kg
# 4T1 [21] = assay: Antitumor activity against mouse 4T1 cells implanted in female BALB/c mouse model assessed as reduction in tumor volume at 50 mg/kg, po qd measured for 18 days in presence of chloroquine; assay type: functional, organism-based; conditions: time 18.0 day
# [22] = Toxicity in female BALB/c mouse assessed as effect on spleen at 50 mg/kg, po qd measured after 18 days in presence of chloroquine by H and E staining based analysis; assay type: organism-based; conditions: in vivo, 432 h, time 18 day
# MCF7 [23] = assay: Induction of apoptosis in human MCF7 cells assessed as increase in Bax/Bcl-2 ratio at 0.5 to 2 uM by Western blot analysis; assay type: functional, cell-based; conditions: dose 0.5-2 µM
# [24] = Toxicity in female BALB/c mouse assessed as effect on liver at 50 mg/kg, po qd measured after 18 days in presence of chloroquine by H and E staining based analysis; assay type: organism-based; conditions: in vivo, 432 h, time 18 day
# MCF7 [25] = assay: Induction of autophagic flux in human MCF7 cells assessed as appearance of multi membrane structure at 0.5 to 2 uM by TEM based analysis; assay type: functional, cell-based; conditions: dose 0.5-2 µM
# [26] = Toxicity in female BALB/c mouse assessed as effect on lung at 50 mg/kg, po qd measured after 18 days in presence of chloroquine by H and E staining based analysis; assay type: organism-based; conditions: in vivo, 432 h, time 18 day
# HCC1937 = assay: Antiproliferative activity against human HCC1937 cells incubated for 48 hrs by CCK-8 method; assay type: functional, cell-based; conditions: HCC1937, 48 h
# 4T1 [27] = assay: Antitumor activity against mouse 4T1 cells implanted in female BALB/c mouse model assessed as reduction in c-Myc phosphorylation level at 50 mg/kg, po qd by immunohistochemical analysis; assay type: functional, organism-based
# 4T1 [28] = assay: Antitumor activity against mouse 4T1 cells implanted in female BALB/c mouse model assessed as reduction in PCNA expression at 50 mg/kg, po in presence of chloroquine by immunohistochemical analysis; assay type: functional, organism-based
# [29] = Toxicity in female BALB/c mouse assessed as effect on kidney at 25 to 50 mg/kg, po qd measured after 18 days by H and E staining based analysis; assay type: organism-based; conditions: in vivo, 432 h, dose 25-50 mg/kg, time 18 day
# MCF7 [30] = assay: Induction of apoptosis in human MCF7 cells assessed as early apoptotic cells at 1 uM incubated for 48 hrs in presence of chloroquine by Annexin V/FITC and PI staining based flow cytometry analysis (reference value: 8.72%); assay type: functional
# MCF7 [31] = assay: Induction of autophagy in human MCF7 cells assessed as upregulation of LC3B-II expression incubated for 48 hrs by Western blotting analysis; assay type: functional, cell-based; conditions: dose 0.5-2 µM
# MCF7 [32] = assay: Induction of apoptosis in human MCF7 cells assessed as late apoptotic cells at 0.5 uM incubated for 48 hrs by Annexin V/FITC and PI staining based flow cytometry analysis (reference value: 2.5%); assay type: functional
# Chain of Vascular endothelial growth factor receptor 1 (Homo sapiens) (P17948 whole entry): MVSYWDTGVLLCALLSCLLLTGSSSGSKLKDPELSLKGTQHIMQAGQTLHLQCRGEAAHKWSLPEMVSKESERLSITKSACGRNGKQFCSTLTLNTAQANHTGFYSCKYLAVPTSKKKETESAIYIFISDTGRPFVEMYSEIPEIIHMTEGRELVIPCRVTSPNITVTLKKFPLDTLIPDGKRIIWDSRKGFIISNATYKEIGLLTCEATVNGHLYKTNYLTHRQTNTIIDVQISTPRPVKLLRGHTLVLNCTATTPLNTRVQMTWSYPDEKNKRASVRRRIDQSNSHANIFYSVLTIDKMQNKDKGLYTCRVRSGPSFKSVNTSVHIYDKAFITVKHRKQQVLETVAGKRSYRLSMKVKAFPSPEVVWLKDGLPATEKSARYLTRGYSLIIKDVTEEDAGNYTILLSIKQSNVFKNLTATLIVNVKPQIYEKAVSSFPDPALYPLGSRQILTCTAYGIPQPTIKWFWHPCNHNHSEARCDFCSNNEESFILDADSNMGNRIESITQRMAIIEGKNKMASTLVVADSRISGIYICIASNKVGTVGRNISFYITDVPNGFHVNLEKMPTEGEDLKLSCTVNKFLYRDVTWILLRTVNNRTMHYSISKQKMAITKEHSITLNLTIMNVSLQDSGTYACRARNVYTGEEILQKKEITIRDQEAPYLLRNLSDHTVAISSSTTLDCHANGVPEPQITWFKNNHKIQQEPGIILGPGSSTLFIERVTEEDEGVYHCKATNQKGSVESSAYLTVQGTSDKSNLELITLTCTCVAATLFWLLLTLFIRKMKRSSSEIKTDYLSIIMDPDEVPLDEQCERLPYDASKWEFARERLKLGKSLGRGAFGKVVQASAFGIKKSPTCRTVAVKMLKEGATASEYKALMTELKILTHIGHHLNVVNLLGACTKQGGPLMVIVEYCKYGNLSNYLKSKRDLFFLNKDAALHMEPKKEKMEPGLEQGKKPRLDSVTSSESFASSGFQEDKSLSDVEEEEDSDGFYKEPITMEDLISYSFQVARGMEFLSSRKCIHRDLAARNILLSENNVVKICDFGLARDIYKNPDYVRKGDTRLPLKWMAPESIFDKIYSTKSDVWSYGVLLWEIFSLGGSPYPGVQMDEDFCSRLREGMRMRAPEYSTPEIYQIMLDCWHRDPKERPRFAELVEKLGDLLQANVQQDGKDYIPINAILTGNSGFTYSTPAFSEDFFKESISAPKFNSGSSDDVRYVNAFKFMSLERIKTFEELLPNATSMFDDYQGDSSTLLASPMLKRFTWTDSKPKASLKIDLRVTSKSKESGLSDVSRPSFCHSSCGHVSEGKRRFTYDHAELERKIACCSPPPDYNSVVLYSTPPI
# Chain of Vascular endothelial growth factor receptor 3 (Homo sapiens) (P35916 whole entry): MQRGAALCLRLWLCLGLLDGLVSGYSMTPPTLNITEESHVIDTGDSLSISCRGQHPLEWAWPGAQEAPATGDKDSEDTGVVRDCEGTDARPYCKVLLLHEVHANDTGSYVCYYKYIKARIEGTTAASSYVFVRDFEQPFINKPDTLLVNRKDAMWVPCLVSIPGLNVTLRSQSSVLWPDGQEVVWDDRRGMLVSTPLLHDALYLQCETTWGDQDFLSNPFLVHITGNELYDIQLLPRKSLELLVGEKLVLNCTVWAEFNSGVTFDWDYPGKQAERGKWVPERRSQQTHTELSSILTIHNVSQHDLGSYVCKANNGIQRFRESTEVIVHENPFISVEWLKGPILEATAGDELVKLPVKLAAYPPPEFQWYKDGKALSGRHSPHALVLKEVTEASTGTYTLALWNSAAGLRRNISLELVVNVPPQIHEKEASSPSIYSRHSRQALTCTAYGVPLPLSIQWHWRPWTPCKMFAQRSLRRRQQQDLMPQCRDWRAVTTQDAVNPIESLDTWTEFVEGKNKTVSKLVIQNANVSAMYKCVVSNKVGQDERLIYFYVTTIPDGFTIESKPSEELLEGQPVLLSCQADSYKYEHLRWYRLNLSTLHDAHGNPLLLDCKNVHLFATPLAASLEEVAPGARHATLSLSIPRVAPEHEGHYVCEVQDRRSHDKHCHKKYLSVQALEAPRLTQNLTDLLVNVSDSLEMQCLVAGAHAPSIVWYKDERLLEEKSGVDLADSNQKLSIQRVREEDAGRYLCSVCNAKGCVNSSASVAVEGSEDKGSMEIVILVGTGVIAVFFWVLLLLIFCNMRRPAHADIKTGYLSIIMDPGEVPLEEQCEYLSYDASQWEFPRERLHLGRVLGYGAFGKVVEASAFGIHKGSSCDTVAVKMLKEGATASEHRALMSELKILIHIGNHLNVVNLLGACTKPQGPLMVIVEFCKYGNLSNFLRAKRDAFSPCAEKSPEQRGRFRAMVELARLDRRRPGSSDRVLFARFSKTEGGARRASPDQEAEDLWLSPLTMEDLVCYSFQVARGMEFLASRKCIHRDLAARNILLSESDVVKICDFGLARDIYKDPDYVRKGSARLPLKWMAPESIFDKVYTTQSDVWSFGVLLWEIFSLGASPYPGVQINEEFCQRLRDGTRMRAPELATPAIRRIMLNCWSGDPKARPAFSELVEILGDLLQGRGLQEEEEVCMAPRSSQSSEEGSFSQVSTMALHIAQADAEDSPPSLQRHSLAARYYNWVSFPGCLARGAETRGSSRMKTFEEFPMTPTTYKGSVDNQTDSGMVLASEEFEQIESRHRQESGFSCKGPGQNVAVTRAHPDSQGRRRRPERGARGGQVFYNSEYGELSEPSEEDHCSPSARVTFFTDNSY
# Chain of Mitogen-activated protein kinase 3 (P27361 whole entry): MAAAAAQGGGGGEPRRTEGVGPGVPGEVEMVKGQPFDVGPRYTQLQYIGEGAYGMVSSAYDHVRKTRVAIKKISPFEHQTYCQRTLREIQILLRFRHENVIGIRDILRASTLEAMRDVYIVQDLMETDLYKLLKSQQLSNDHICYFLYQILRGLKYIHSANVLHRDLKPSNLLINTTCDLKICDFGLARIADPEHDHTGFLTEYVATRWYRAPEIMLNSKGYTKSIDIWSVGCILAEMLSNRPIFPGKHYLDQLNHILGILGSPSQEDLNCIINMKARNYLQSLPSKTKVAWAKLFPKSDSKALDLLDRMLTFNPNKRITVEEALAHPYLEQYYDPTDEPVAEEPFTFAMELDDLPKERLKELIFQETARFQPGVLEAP
# Chain of Non-receptor tyrosine-protein kinase TYK2 (Homo sapiens) (P29597 whole entry): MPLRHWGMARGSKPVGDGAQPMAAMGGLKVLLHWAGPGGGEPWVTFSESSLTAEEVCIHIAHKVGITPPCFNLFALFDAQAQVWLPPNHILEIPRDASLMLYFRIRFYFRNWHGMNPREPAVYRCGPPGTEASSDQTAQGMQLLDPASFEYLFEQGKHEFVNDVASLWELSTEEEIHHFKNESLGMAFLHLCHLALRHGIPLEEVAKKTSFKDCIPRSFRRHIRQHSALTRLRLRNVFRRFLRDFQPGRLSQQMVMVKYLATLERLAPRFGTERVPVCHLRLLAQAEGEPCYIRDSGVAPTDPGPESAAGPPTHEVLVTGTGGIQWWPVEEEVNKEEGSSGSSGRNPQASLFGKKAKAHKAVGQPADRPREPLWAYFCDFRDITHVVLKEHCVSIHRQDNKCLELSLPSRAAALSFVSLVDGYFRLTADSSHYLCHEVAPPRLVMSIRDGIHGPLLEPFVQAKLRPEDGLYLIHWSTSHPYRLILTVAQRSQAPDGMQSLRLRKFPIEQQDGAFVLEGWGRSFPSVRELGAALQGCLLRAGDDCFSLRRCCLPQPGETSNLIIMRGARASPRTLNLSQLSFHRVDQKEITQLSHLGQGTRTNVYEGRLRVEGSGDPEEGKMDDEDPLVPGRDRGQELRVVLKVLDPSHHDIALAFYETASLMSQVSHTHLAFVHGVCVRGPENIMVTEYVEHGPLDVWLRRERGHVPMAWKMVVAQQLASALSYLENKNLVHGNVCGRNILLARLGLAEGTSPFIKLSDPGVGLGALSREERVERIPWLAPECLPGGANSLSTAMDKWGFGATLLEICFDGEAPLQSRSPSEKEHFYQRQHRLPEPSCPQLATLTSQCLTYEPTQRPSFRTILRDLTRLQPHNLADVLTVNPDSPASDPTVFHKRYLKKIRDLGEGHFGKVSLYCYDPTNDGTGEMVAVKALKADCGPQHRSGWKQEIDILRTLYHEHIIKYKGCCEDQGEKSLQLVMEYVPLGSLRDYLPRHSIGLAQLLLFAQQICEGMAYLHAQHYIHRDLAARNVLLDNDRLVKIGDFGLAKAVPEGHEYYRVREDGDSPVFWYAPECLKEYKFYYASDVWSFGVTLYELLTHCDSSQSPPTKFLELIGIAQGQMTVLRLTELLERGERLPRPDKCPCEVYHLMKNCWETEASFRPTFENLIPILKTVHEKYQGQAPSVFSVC
compound,measurement,setting,value
O=C(Nc1cc(C(F)(F)F)cc(C(F)(F)F)c1)N[C@@H](Cc1ccccc1)Cn1c[n+](Cc2ccc3ccccc3c2)c2ccccc21.[Br-],Activity,MCF7 [1],Not active; Compound Showed Less Sensitivity Response
same,inhibition,[2],19%
same,Activity,[3],Non-toxic
same,Activity,MCF7 [4],26.9%
same,inhibition,[5],14%
same,inhibition,MCF7 [6],Active
same,Activity,MCF7 [7],Active
same,half-life,[8],2.51 h
same,Activity,4T1 [9],Active
same,Activity,MCF7 [10],Active
same,Activity,MCF7 [11],14.8%
same,Activity,[12],Non-toxic
same,Activity,MCF7 [13],Dose-dependent-effect
same,Activity,[14],Active
same,AUC(0-t),[15],1040 ng·h/mL
same,Activity,MCF7 [16],Active
same,Activity,Mitochondrial membrane,5.4%
same,inhibition,[17],18%
same,IC50,MCF-10A,> 10 µM
same,Activity,[18],Non-toxic
same,Activity,4T1-Luc,Active
same,Activity,MCF7 [19],Active
same,Activity,4T1 [20],Active
same,Activity,4T1 [21],Active
same,Activity,[22],Non-toxic
same,Activity,MCF7 [23],Active
same,Activity,[24],Non-toxic
same,Activity,MCF7 [25],Active
same,Activity,[26],Non-toxic
same,IC50,HCC1937,1.68 µM
same,Activity,4T1 [27],Active
same,Activity,4T1 [28],Active
same,Activity,[29],Non-toxic
same,Activity,MCF7 [30],4.92%
same,Activity,MCF7 [31],Dose-dependent-effect
same,Activity,MCF7 [32],7.8%
